Values of other authors, collected in patent publication US8853170B2, “Compositions comprising sugar-cysteine products” (Max International, LLC, priority 2010, dated 2014).

Columns and labels:
[1] = test system: glutathione levels; conditions: mice, 8 mmol/kg i.p.
[2] = test system: mice exposed to cyclophosphamide; conditions: 8 mmol/kg
[3] = test system: acetaminophen hepatic and renal toxicity; conditions: mice, doses of 2 g/kg
[4] = test system: irradiation-induced bowel injury; conditions: mice, doses of 1 g/kg
[5] = test system: healthy humans; conditions: orally 8-10 g per day by an adult
[6] = test system: ATP levels; conditions: dogs subjected to ischemia, about 3 g/day for at least 5 days
[7] = test system: humans; conditions: ribose administered directly to humans

SMILES | increased glutathione levels, heart ([1]; heart) | increased glutathione levels, muscle tissue ([1]; muscle tissue) | delivery of protective amounts of cysteine [2] | protection against acetaminophen hepatic and renal toxicity [3] | protection against irradiation-induced bowel injury [4] | exercise capacity [5] | ATP levels [6] | toxicity [7]
O=C(O)[C@@H]1CSC(C(O)C(O)C(O)CO)N1 (stereo partly drawn) [RibCys, 2(R,S)-D-ribo-(1′,2′,3′,4′-tetrahydroxybutyl)thiazolidine-4(R)-carboxylic acid] | 1.5 times | 2.5 times | deliver effective protective amounts of cysteine | protect mice against acetaminophen hepatic and renal toxicity | protect mice against irradiation-induced bowel injury |  |  | 
O=C[C@H](O)[C@H](O)[C@H](O)CO [ribose] |  |  |  |  |  | increase exercise capacity | effectively restored and maintained ATP levels | essentially non-toxic over wide dosage ranges
